Experimental findings from US20220313835A1, “AMINOQUINOLINE COMPOUNDS, IMMUNOCONJUGATES, AND USES THEREOF” (BOLT BIOTHERAPEUTICS, INC., priority 2019, published 2022) are described below.

Each structure is given as a SMILES string.

One assay deals with T1, human TLR7 (Homo sapiens, UniProt Q9NYK1).
T1 construct: host or cells: HEK293 NF-kB reporter cells
T1 sequence (Q9NYK1 27-1049): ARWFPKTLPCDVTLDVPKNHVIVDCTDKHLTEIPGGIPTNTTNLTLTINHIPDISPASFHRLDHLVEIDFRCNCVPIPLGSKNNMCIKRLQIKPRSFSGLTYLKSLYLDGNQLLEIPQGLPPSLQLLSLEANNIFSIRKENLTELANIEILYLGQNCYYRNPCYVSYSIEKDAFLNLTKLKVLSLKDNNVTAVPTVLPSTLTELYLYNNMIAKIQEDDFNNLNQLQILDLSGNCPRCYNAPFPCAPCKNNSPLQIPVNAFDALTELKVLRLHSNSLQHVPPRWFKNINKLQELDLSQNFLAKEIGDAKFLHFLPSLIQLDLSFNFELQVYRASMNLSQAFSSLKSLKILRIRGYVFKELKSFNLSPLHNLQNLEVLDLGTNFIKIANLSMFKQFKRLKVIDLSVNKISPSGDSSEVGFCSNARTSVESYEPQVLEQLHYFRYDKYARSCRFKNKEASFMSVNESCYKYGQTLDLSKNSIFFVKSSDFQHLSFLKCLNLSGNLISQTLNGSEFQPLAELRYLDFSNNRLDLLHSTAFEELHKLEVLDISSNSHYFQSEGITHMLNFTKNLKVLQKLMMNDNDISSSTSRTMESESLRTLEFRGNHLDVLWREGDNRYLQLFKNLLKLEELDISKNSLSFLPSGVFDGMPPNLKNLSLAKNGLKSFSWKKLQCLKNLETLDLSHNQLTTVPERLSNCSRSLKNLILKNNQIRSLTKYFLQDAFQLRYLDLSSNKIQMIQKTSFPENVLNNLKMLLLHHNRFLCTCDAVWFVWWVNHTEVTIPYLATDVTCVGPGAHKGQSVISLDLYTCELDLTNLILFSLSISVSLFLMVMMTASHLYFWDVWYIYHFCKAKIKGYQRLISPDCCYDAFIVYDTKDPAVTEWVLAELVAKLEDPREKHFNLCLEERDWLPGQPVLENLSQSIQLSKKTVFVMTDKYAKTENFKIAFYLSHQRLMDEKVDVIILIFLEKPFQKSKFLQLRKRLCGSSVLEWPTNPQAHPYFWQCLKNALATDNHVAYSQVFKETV
The assay can be described thus: HEK Reporter Assay, HEK293 NFKB reporter cells expressing human TLR7. In kind it is cell-based. The note with it: read-out: HEK-293 hTLR7 EC50. The protocol:
(§1) Each compound was characterized by mass spectrometry and shown to have the mass indicated. Activity against HEK293 NFKB reporter cells expressing human TLR7 or human TLR8 was measured according to Example 31.
(§2) HEK293 reporter cells expressing human TLR7 or human TLR8 were purchased from Invivogen and vendor protocols were followed for cellular propagation and experimentation. Briefly, cells were grown to 80-85% confluence at 5% CO2 in DMEM supplemented with 10% FBS, Zeocin, and Blasticidin. Cells were then seeded in 96-well flat plates at 4×10^4 cells/well with substrate containing HEK detection medium and immunostimulatory molecules. Activity was measured using a plate reader at 620-655 nm wavelength.
Background: A reporter such as luciferase makes a cellular process visible.

For another assay, the target named is T2, human TLR8 (Homo sapiens, UniProt Q9NR97).
T2 construct: host or cells: HEK293 NF-kB reporter cells
T2 sequence (Q9NR97 27-1041): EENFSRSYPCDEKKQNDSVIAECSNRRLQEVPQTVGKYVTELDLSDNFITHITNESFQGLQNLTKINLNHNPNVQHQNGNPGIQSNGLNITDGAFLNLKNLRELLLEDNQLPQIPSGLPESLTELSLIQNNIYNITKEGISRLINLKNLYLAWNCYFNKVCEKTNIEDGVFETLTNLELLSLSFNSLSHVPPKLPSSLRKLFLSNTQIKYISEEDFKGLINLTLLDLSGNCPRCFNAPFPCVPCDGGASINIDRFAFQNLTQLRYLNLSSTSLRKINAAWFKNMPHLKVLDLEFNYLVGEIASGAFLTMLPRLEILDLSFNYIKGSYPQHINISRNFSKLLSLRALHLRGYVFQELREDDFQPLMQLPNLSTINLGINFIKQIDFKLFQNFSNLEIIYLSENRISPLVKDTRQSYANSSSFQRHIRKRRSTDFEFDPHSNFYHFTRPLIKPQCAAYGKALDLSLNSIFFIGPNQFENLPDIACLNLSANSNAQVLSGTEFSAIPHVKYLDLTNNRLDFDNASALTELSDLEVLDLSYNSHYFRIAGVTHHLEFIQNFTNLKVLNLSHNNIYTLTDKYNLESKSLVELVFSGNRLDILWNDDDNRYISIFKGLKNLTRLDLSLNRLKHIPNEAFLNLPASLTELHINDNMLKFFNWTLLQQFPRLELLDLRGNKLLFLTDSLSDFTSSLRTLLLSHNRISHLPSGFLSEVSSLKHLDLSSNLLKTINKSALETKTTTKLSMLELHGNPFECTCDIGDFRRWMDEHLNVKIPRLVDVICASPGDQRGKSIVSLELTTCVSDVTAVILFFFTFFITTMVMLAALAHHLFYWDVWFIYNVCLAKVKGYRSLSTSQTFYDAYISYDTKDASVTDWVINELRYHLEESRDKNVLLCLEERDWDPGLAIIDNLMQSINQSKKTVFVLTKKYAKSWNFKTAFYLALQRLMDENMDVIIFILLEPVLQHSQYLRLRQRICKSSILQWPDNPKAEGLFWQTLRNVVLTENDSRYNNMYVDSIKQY
Description: HEK Reporter Assay, HEK293 NFKB reporter cells expressing human TLR8. In kind it is cell-based. The note with it: read-out: HEK-293 hTLR8 EC50. The protocol: as §1, §2

For the molecule `CCCCCc1cc2c(CCCCCNC(C)=O)cccc2nc1N` [AQ-1, N-(5-(2-amino-3-pentylquinolin-5-yl)pentyl)acetamide], the concentration for a half-maximal effect (EC50) at human TLR7 was 0.252 µM; at human TLR8, greater than 9 µM.

Regarding `CCCCCc1cc2c(CCCCCNC(=O)Nc3cccc(C#N)c3)cccc2nc1N` [AQ-2, 1-(5-(2-amino-3-pentylquinolin-5-yl)pentyl)-3-(3-cyanophenyl)urea], the EC50 at human TLR7 and at human TLR8 was greater than 9 µM throughout.

For the molecule `CCCCCc1cc2c(CCCCCNC(=O)OC(C)(C)C)cccc2nc1N` [AQ-3, tert-butyl (5-(2-amino-3-pentylquinolin-5-yl)pentyl)carbamate], the concentration giving a half-maximal response (EC50) on human TLR7 and on human TLR8 was greater than 9 µM throughout.

Turning to `CCCCCc1cc2c(CCCCCNC=O)cccc2nc1N` [AQ-4, N-(5-(2-amino-3-pentylquinolin-5-yl)pentyl)formamide], the EC50 on human TLR7 and on human TLR8 was greater than 9 µM each time.

In the case of `CCCCCc1cc2ccc(-c3cccc(S(=O)(=O)N4CC(CO)C4)c3)cc2nc1N` [AQ-5, (1-((3-(2-amino-3-pentylquinolin-7-yl)phenyl)sulfonyl)azetidin-3-yl)methanol], the EC50 was greater than 9 µM on human TLR7 and 0.562 µM on human TLR8.

As for `CCCN(CCC)C(=O)c1cc2ccccc2nc1N` [AQ-6, 2-amino-N,N-dipropylquinoline-3-carboxamide], the EC50 at human TLR7 and on human TLR8 was greater than 9 µM in each case.

On to `CCCN(CCC)C(=O)c1cc2c(CCCCCN)cccc2nc1N` [AQ-7, 2-amino-5-(5-aminopentyl)-N,N-dipropylquinoline-3-carboxamide], for which the EC50 at human TLR7 and at human TLR8 was greater than 9 µM throughout.

Regarding `CCCCCc1cc2c(CCCCCN(C)C)cccc2nc1N` [AQ-8, 5-(5-(dimethylamino)pentyl)-3-pentylquinolin-2-amine], the EC50 at human TLR7 was greater than 9 µM; at human TLR8, 1.02 µM.

Regarding `CCCCCc1cc2ccc(C(=O)Nc3ccc(N4CCC(C(=O)NCCNC(=O)OC(C)(C)C)CC4)nc3)cc2nc1N` [AQ-10, tert-butyl N-[2-[[1-[5-[(2-amino-3-pentyl-quinoline-7-carbonyl)amino]-2-pyridyl]piperidine-4-carbonyl]amino]ethyl]carbamate], the EC50 on human TLR7 and at human TLR8 was greater than 9 µM in each case.

In the case of `CCCCCc1cc2ccc(-c3cccc(S(=O)(=O)N4CC(CNC(=O)OC(C)(C)C)C4)c3)cc2nc1N` [AQ-11, tert-butylN-[[1-[3-(2-amino-3-pentyl-7-quinolyl)phenyl]sulfonylazetidin-3-yl]methyl] carbamate], the EC50 at human TLR7 and on human TLR8 was greater than 9 µM in each case.

On to `CCCCCc1cc2ccc(-c3cccc(S(=O)(=O)N4CC(CN)C4)c3)cc2nc1N` [AQ-12, 7-[3-[3-(aminomethyl)azetidin-1-yl]sulfonylphenyl]-3-pentyl-quinolin-2-amine], for which the EC50 at human TLR7 was greater than 9 µM; at human TLR8 it was 1.48 µM.

`CCCCCc1cc2c(CCCCCN)cc(-c3cccc(S(=O)(=O)N4CC(CO)C4)c3)cc2nc1N` [AQ-13, [1-[3-[2-amino-5-(5-aminopentyl)-3-pentyl-7-quinolyl]phenyl]sulfonylazetidin-3-yl]methanol]: the concentration for a half-maximal effect (EC50) on human TLR7 and on human TLR8 was greater than 9 µM in each case.

Take `CCCCCc1cc2ccc(C(=O)Nc3ccc(N4CCC(C(=O)NCCN)CC4)nc3)cc2nc1N` [AQ-14, 2-amino-N-(6-(4-((2-aminoethyl)carbamoyl)piperidin-1-yl)pyridin-3-yl)-3-pentylquinoline-7-carboxamide]: the EC50 on human TLR7 and on human TLR8 was greater than 9 µM each time.

With `CCCCCc1cc2c(CC3CCCN3C)cc(-c3cccc(S(=O)(=O)N4CC(CO)C4)c3)cc2nc1N` (stereo not shown) [AQ-15, [1-[3-[2-amino-5-[(1-methylpyrrolidin-2-yl)methyl]-3-pentyl-7-quinolyl]phenyl]sulfonylazetidin-3-yl]methanol], the EC50 on human TLR7 is greater than 9 µM; at human TLR8, 2.45 µM.

For the molecule `CCCCCc1cc2c(C#CCCCNC(=O)OC(C)(C)C)cc(-c3cccc(S(=O)(=O)N4CC(CO)C4)c3)cc2nc1N` [AQ-16, tert-butyl N-[5-[2-amino-7-[3-[3-(hydroxymethyl)azetidin-1-yl]sulfonylphenyl]-3-pentyl-5-quinolyl]pent-4-ynyl]carbamate], the EC50 on human TLR7 and at human TLR8 was greater than 9 µM throughout.

As to `CCCCCc1cc2ccc(-c3cccc(S(=O)(=O)N4CC(CN/C(=N\CCOC)Nc5cccc(C#N)c5)C4)c3)cc2nc1N` [AQ-17, 1-((1-((3-(2-amino-3-pentylquinolin-7-yl)phenyl)sulfonyl)azetidin-3-yl)methyl)-3-(3-cyanophenyl)-2-(2-methoxyethyl)guanidine], the concentration for a half-maximal effect (EC50) on human TLR7 and on human TLR8 was greater than 9 µM in each case.

Take `CCCCCc1cc2c(CCCCCN/C(=N\c3cccc(C#N)c3)NCCOC)cccc2nc1N` [AQ-18, 1-(5-(2-amino-3-pentylquinolin-5-yl)pentyl)-3-(3-cyanophenyl)-2-(2-methoxyethyl)guanidine]: the EC50 on human TLR7 and on human TLR8 was greater than 9 µM each time.

As a reminder, the EC50 is the concentration needed to bring the measured effect to its halfway point.
